Reference: US20020165267A1 (priority 2001, published 2002)

Key:
[1] = system: Bacillus thuringiensis ATCC55055; Bacillus subtilis 1270; test: Agar diffusion test, clear zones of growth inhibition around wells; format: cell-based; settings: Phloxine B 100 μg/ml; 50 μl per well; 37° C., 16 hours
Protocol: Sensitivity of bacteria to the commercially available Phloxine B measured by agar diffusion test. Principle of this microbiological assay: The bacteria were grown on Brain Heart Infusion (BHI) broth. Growth was analyzed by measuring turbidity with a spectrophotometer. During the logarithmic phase (OD of 0 3 at 600 nm), 200 μl of the bacterial culture was spread over the surface of an agar plate with a bent glass rod. Fifty μl of various concentrations of Phloxine B (200, 100, 50, 25, and 12.5 μg/ml diluted in the BHI broth) were added to the wells. The plate was then transferred to an incubator at 37° C. the appearance of clear zones around the wells after 16 hours, indicating inhibition of bacterial growth, was noted.

[2] = humans; set by the FDA; cited from earlier work
[3] = system: B. mycoides, B. thuringiensis, and B. subtilis; format: cell-based

2′,4′,5′,7′-tetrachlorofluorecein disodium salt [Phloxine B]
size of clear zones compared with chloramphenicol [1]: half the inhibition zones observed with chloramphenicol at 200 μg/ml
acceptable daily intake (ADI) [2]: 1.25 mg/kg
reduction of the number of Colony-Forming Units ([3]; 100 μg/ml, printed also as factor of 100): more than two logs
inhibition of bacterial growth ([3]; 100, 75, 50, 25 μg/ml added in logarithmic growth phase, BHI broth): dose-dependent manner
antibiotic activity on bacteria ([3]; B. mycoides, B. thuringiensis, B. subtilis): very good antibiotic activity
decrease of bacterial count ([3]; dye added at 100 μg/ml, in minutes): 3 logs
